Values quoted from earlier work, collected in patent publication US20240130871A1, “DRUG-COATED ENDOVASCULAR DEVICES” (UNIVERSITY OF SOUTH CAROLINA, priority 2022, published 2024).

Settings: current DCB devices

In the case of `CC(=O)O[C@H]1C(=O)[C@@]2(C)[C@H]([C@H](OC(=O)c3ccccc3)[C@]3(O)C[C@H](OC(=O)[C@H](O)[C@@H](NC(=O)c4ccccc4)c4ccccc4)C(C)=C1C3(C)C)[C@]1(OC(C)=O)CO[C@@H]1C[C@@H]2O` [PTX, paclitaxel], the “delivered PTX lost to systemic circulation” value is given as > 90%.
